Where no end group is shown, it is not given here.
How the values were obtained:
Assay in all cases: Histone peptide microarray
Assay type in all cases: binding, human
[1] = test system: ING5
In short: (§1)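 GST-tagged PHD finger readers were expressed, purified and applied at 0.5 μM to a microarray of 293 synthetic histone peptides carrying single or combinatorial PTMs, using an optimized protocol. Binding signals are averages with standard deviation from 4 replicates.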

[2] = test system: CHD4 (PPCC)
In short: as §1

[3] = test system: ING4
In short: as §1

[4] = test system: BAZ2B
In short: as §1

[5] = test system: KDM5B (3)
In short: as §1

[6] = test system: MLL5
In short: as §1

[7] = test system: DIDO1
In short: as §1

[8] = test system: TRIM66 (PB)
In short: as §1

[9] = test system: RAG2
In short: as §1

[10] = test system: BPTF (PB)
In short: as §1

[11] = test system: SP140L
In short: as §1

[12] = test system: ING2
In short: as §1

[13] = test system: ING3
In short: as §1

[14] = test system: PHF13
In short: as §1

[15] = test system: KDM5A (1)
In short: as §1

[16] = test system: KDM4C (TTP)
In short: as §1

[17] = test system: PHRF1 (RP)
In short: as §1

[18] = test system: PHF2
In short: as §1

[19] = test system: MORC3 (CW)
In short: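 GST-tagged PHD readers, 0.5 μM, probed on a microarray of 293 synthetic histone peptides carrying single or combinatorial PTMs (optimized Petell protocol). Signals are averaged over 4 replicates and expressed as relative binding.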

[20] = test system: PHF21A
In short: as §1

[21] = test system: AIRE (PP)
In short: as §1

[22] = test system: KDM5B (1)
In short: as §1

[23] = test system: CHD5 (PCC)
In short: as §1

[24] = test system: ING1
In short: as §1

[25] = test system: KDM7A
In short: as §1

[26] = test system: TAF3
In short: as §1

[27] = test system: PHF23
In short: as §1

[28] = test system: CHD5 (PPCC)
In short: as §1

[29] = test system: DPF2 (PPC2W2)
In short: as §1

[30] = test system: PHF8
In short: as §1

[31] = test system: KDM5A (3)
In short: as §1

[32] = histone peptide array, GST-tagged reader, arrays performed twice, n of 4
[33] = histone peptide array, GST-tagged reader, PPCC = Dual PHD + Dual Chromodomain, arrays performed twice, n of 4
[34] = histone peptide array, GST-tagged reader, PB = PHD + Bromodomain, arrays performed twice, n of 4

Substance: H3.3K27vl (15-34): H3.3 15-34
- Array Heatmap value (peptide array signal) ([1]; ING5, sheet "Array Heatmap", each array performed twice, total n = 4): 0.3413
- Array Heatmap value (peptide array signal) ([2]; CHD4 (PPCC), sheet "Array Heatmap", each array performed twice, total n = 4): 0.5729
- Array Heatmap value (peptide array signal) ([3]; ING4, sheet "Array Heatmap", each array performed twice, total n = 4): 0.4471
- Array Heatmap value (peptide array signal) ([4]; BAZ2B, sheet "Array Heatmap", each array performed twice, total n = 4): 0.4362
- Array Heatmap value (peptide array signal) ([5]; KDM5B (3), sheet "Array Heatmap", each array performed twice, total n = 4): 0.4603
- Array Heatmap value (peptide array signal) ([6]; MLL5, sheet "Array Heatmap", each array performed twice, total n = 4): 0.5405
- Array Heatmap value (peptide array signal) ([7]; DIDO1, sheet "Array Heatmap", each array performed twice, total n = 4): 0.7045
- Array Heatmap value (peptide array signal) ([8]; TRIM66 (PB), sheet "Array Heatmap", each array performed twice, total n = 4): 0.5686
- Array Heatmap value (peptide array signal) ([9]; RAG2, sheet "Array Heatmap", each array performed twice, total n = 4): 0.2413
- Array Heatmap value (peptide array signal) ([10]; BPTF (PB), sheet "Array Heatmap", each array performed twice, total n = 4): 0.3408
- Array Heatmap value (peptide array signal) ([11]; SP140L, sheet "Array Heatmap", each array performed twice, total n = 4): 0.3739
- Array Heatmap value (peptide array signal) ([12]; ING2, sheet "Array Heatmap", each array performed twice, total n = 4): 0.6055
- Array Heatmap value (peptide array signal) ([13]; ING3, sheet "Array Heatmap", each array performed twice, total n = 4): 0.4849
- Array Heatmap value (peptide array signal) ([14]; PHF13, sheet "Array Heatmap", each array performed twice, total n = 4): 0.5845
- Array Heatmap value (peptide array signal) ([15]; KDM5A (1), sheet "Array Heatmap", each array performed twice, total n = 4): 0.4391
- Array Heatmap value (peptide array signal) ([16]; KDM4C (TTP), sheet "Array Heatmap", each array performed twice, total n = 4): 0.4488
- Array Heatmap value (peptide array signal) ([17]; PHRF1 (RP), sheet "Array Heatmap", each array performed twice, total n = 4): 0.4435
- Array Heatmap value (peptide array signal) ([18]; PHF2, sheet "Array Heatmap", each array performed twice, total n = 4): 0.5263
- Array Heatmap value (peptide array signal) ([19]; MORC3 (CW), sheet "Array Heatmap", each array performed twice, total n = 4): 0.3607
- Array Heatmap value (peptide array signal) ([20]; PHF21A, sheet "Array Heatmap", each array performed twice, total n = 4): 0.4671
- Array Heatmap value (peptide array signal) ([21]; AIRE (PP), sheet "Array Heatmap", each array performed twice, total n = 4): 0.3881
- Array Heatmap value (peptide array signal) ([22]; KDM5B (1), sheet "Array Heatmap", each array performed twice, total n = 4): 0.5524
- Array Heatmap value (peptide array signal) ([23]; CHD5 (PCC), sheet "Array Heatmap", each array performed twice, total n = 4): 0.7909
- Array Heatmap value (peptide array signal) ([24]; ING1, sheet "Array Heatmap", each array performed twice, total n = 4): 0.5627
- Array Heatmap value (peptide array signal) ([25]; KDM7A, sheet "Array Heatmap", each array performed twice, total n = 4): 0.3156
- Array Heatmap value (peptide array signal) ([26]; TAF3, sheet "Array Heatmap", each array performed twice, total n = 4): 0.2402
- Array Heatmap value (peptide array signal) ([27]; PHF23, sheet "Array Heatmap", each array performed twice, total n = 4): 0.5229
- Array Heatmap value (peptide array signal) ([28]; CHD5 (PPCC), sheet "Array Heatmap", each array performed twice, total n = 4): 0.5207
- Array Heatmap value (peptide array signal) ([29]; DPF2 (PPC2W2), sheet "Array Heatmap", each array performed twice, total n = 4): 0.6907
- Array Heatmap value (peptide array signal) ([30]; PHF8, sheet "Array Heatmap", each array performed twice, total n = 4): 0.3696
- Array Heatmap value (peptide array signal) ([31]; KDM5A (3), sheet "Array Heatmap", each array performed twice, total n = 4): 0.423

Substance: H3.3K36ac (27-45): H3.3 27-45 (KSAPSTGGVK(Ac)KPHRYRPGT; UniProt P84243 28-46, looked up, fragment)
- Array Heatmap signal, ING5 [1, 32]: 0.3709
- Array Heatmap signal, CHD4 (PPCC) [2, 33]: 0.5592
- Array Heatmap signal, ING4 [3, 32]: 0.4648
- Array Heatmap signal, BAZ2B [4, 32]: 0.4933
- Array Heatmap signal, KDM5B (3) [5, 32]: 0.5076
- Array Heatmap signal, MLL5 [6, 32]: 0.5589
- Array Heatmap signal, DIDO1 [7, 32]: 0.652
- Array Heatmap signal, TRIM66 (PB) [8, 34]: 0.5797
- Array Heatmap signal, RAG2 [9, 32]: 0.2614
- Array Heatmap signal, BPTF (PB) [10, 34]: 0.3342
- Array Heatmap signal, SP140L [11, 32]: 0.378
- Array Heatmap signal, ING2 [12, 32]: 0.5814
- Array Heatmap signal, ING3 [13, 32]: 0.4435
- Array Heatmap signal, PHF13 [14, 32]: 0.6099
- Array Heatmap signal, KDM5A (1) [15, 32]: 0.4872
- Array Heatmap signal, KDM4C (TTP) ([16]; histone peptide array, GST-tagged reader, TTP = Tandem Tudor domain + PHD, arrays performed twice, n of 4): 0.5383
- Array Heatmap signal, PHRF1 (RP) [17, 32]: 0.3938
- Array Heatmap signal, PHF2 [18, 32]: 0.4404
- Array Heatmap signal, MORC3 (CW) ([19]; histone peptide array, GST-tagged reader, CW = CW-type Zn-finger, arrays performed twice, n of 4): 0.2989
- Array Heatmap signal, PHF21A [20, 32]: 0.4713
- Array Heatmap signal, AIRE (PP) [21, 32]: 0.5459
- Array Heatmap signal, KDM5B (1) [22, 32]: 0.6658
- Array Heatmap signal, CHD5 (PCC) ([23]; histone peptide array, GST-tagged reader, PCC = PHD + Dual Chromodomain, arrays performed twice, n of 4): 0.818
- Array Heatmap signal, ING1 [24, 32]: 0.4834
- Array Heatmap signal, KDM7A [25, 32]: 0.4861
- Array Heatmap signal, TAF3 [26, 32]: 0.2777
- Array Heatmap signal, PHF23 [27, 32]: 0.4952
- Array Heatmap signal, CHD5 (PPCC) [28, 33]: 0.5516
- Array Heatmap signal, DPF2 (PPC2W2) ([29]; histone peptide array, GST-tagged reader, PPC2W2 = Dual PHD + C2W2-type Zn-finger, arrays performed twice, n of 4): 0.6599
- Array Heatmap signal, PHF8 [30, 32]: 0.3248
- Array Heatmap signal, KDM5A (3) [31, 32]: 0.4209

Reference: publication PMC6979384, “Characterization of the plant homeodomain (PHD) reader family for their histone tail interactions” (Epigenetics & Chromatin, 2020)
